From PMC9029893 (International Journal of Molecular Sciences, 2022)

Key:
[1] = WST-1 cell viability assay, HUVEC; conditions: human, HUVEC cells
Method: (§1) HUVEC and AoSMC viability were tested using the WST-1 cell viability assay (Takara Bio Europe, Saint-Germain-en-Laye, France). […] Briefly, HUVEC and AoSMC were seeded at densities of 7500 and 5000 cells per well on 96-well plates. The cells were cultivated for up to 24 h to achieve 70% confluency, and subsequently treated with tested compounds diluted in medium (1 + 9; v = 100 μL) or pure medium (control). The plates were incubated at 37 °C (5% CO2) for the next 24 h. Then, the cells were rinsed with 100 μL culture medium, and WST-1 reagent diluted in medium (100 μL) was added; the plates were then incubated again (37 °C, 5% CO2) for another 90 min. The absorbance was measured at 450 nm (iMARK, Bio-Rad, Hercules, CA, USA). The experiments were performed in multiplicate (n = 8) and the results were presented as mean ± SD. The cell viability was expressed as a percentage of the control samples, which constituted 100% viability. […] The variability coefficient of the method was estimated (CV(HUVEC) = 8.94%, n = 8; CV(AoSMC) = 5.84%, n = 10).

HUVEC cells = assay: WST-1 cell viability assay, HUVEC; conditions: for Decrease of HUVECs viability (growth inhibition): 0.3 mM, vs control; for IC50: Homo sapiens, HUVEC, 24 h, read-out: Viability-IC50, HUVEC cells
Method: as §1

[2] = WST-1 cell viability assay, AoSMC; conditions: human, AoSMC cells
Method: as §1

[3] = test system: human plasma (platelet poor plasma); assay: Basic coagulation tests: PT, INR, APTT, TT; type: biochemical; conditions: for TT: thrombin 3.0 UNIH/mL
Method: The blood was collected into vacuum tubes stuffed with 3.2% buffered sodium citrate. Platelet poor plasma (PPP) was obtained by centrifugation at 3000× g for 10 min at room temperature using a Micro 22R centrifuge (Hettich Zentrifugen, Tuttlingen, Germany). The obtained PPP was stored in small aliquots for up to one month at –30° C. Before each experiment, PPP was restored at 37 °C for 15 min. Once thawed, the PPP was not frozen again nor used for retesting.
The effects of biguanidines (1–5) on the basic coagulation parameters (PT, INR, APTT, and TT) were carried out using a CoagChrom-3003 coagulometer (Bio-Ksel, Grudziądz, Poland), according to the routine laboratory diagnostic procedure. The studies were performed in multiplicate (n = 4–7). The control samples containing distilled water and methanol (1:1) were also included.
The results are presented as mean ± standard deviation (SD). The methods were validated, and coefficients of variability for all experiments were calculated (PT: CV = 10.25%, APTT: CV = 8.55%, TT: CV = 4.87%). The reference values for each test are as follows: PT: 9.7–14.6 s; APTT: 26.7–40.0 s; TT: 14.0–18.0 s for 3.0 UNIH/mL of thrombin.

AoSMC cells = assay: WST-1 cell viability assay, AoSMC; conditions: Homo sapiens, 24 h, read-out: Viability-IC50, AoSMC cells
Method: as §1

SMILES	APTT ([3]; 0.006 mM)	INR ([3]; 0.006 mM)	PT ([3]; 0.006 mM)	TT ([3]; 0.006 mM)	APTT ([3]; 0.06 mM)	INR ([3]; 0.06 mM)	PT ([3]; 0.06 mM)	TT ([3]; 0.06 mM)	APTT ([3]; 0.3 mM)	INR ([3]; 0.3 mM)	PT ([3]; 0.3 mM)	TT ([3]; 0.3 mM)	APTT ([3]; 0.6 mM)	INR ([3]; 0.6 mM)	PT ([3]; 0.6 mM)	TT ([3]; 0.6 mM)	APTT ([3]; 1.5 mM)	INR ([3]; 1.5 mM)	PT ([3]; 1.5 mM)	TT ([3]; 1.5 mM)	other results
CCCCS(=O)(=O)NC(N)=NC(=N)N(C)C [Compound 1]	35.12 ± 4.75 s	1.04 ± 0.19	13.04 ± 2.41 s	14.03 ± 0.94 s	33.36 ± 1.78 s	1.11 ± 0.23	12.78 ± 1.86 s	12.98 ± 1.08 s	33.76 ± 2.53 s	1.08 ± 0.22	13.46 ± 2.71 s	13.90 ± 1.24 s	34.68 ± 3.31 s	1.05 ± 0.19	13.08 ± 2.36 s	12.64 ± 1.31 s	34.68 ± 5.21 s	1.08 ± 0.23	13.48 ± 2.93 s	13.03 ± 0.86 s	viability at 24 h, 0.06 mM [1]: 76.3 ± 9.19%; viability at 24 h, 0.3 mM [1]: 71 ± 8.45%; Decrease of HUVECs viability (growth inhibition) (HUVEC cells): approximately 28.96%; IC50 (HUVEC cells): 3.64 ± 0.26 mM; viability at 24 h, 3 mM [2]: > 59%
CCCCCCCCS(=O)(=O)NC(N)=NC(=N)N(C)C [Compound 2]	30.79 ± 5.87 s	1.07 ± 0.15	13.30 ± 1.81 s	14.14 ± 0.59 s	31.33 ± 5.53 s	1.03 ± 0.10	12.82 ± 1.33 s	13.86 ± 0.80 s	33.49 ± 4.85 s	1.05 ± 0.11	13.10 ± 1.37 s	13.48 ± 2.10 s	33.46 ± 5.59 s	1.04 ± 0.11	12.96 ± 1.42 s	14.40 ± 2.35 s	34.83 ± 6.22 s	1.06 ± 0.10	13.20 ± 1.23 s	16.32 ± 2.21 s	viability at 24 h, 0.06 mM [1]: 75.9 ± 5.85%; viability at 24 h, 0.3 mM [1]: 71.5 ± 3.12%; viability at 24 h, 3 mM [1]: 41.5%; viability at 24 h, 5 mM [1]: 32.1%; IC50 (AoSMC cells): 3.71 ± 0.54 mM
CN(C)C(=N)N=C(N)NS(=O)(=O)C1CCCCC1 [Compound 3]	32.97 ± 5.06 s	1.00 ± 0.11	12.52 ± 1.42 s	13.18 ± 1.97 s	34.50 ± 4.52 s	1.04 ± 0.15	13.02 ± 1.90 s	13.14 ± 2.01 s	33.00 ± 5.70 s	1.09 ± 0.11	13.60 ± 1.39 s	13.46 ± 1.97 s	33.17 ± 5.34 s	1.09 ± 0.18	13.66 ± 2.27 s	13.50 ± 1.74 s	32.49 ± 7.50 s	1.06 ± 0.18	13.30 ± 2.30 s	14.06 ± 1.60 s	Decrease of HUVECs viability (growth inhibition) (HUVEC cells): ~24.15%; IC50 (HUVEC cells): 3.51 ± 0.24 mM; viability at 24 h, 3 mM [2]: > 76%
